# Values joined by “and” are separate entries in the source; they are usually repeats but may differ in a detail not shown here. Equal values may be shown once.
# Legend:
# [1] = Cholesterol levels in ob/ob mice after 30 days of oral dose at 30 mpk b.i.d.; type: ADME; details: mouse, in vivo, 30 mg/kg, 720 h
# [2] = Glycogen levels in ob/ob mice after 14 days of oral dose at 100 mpk b.i.d.; type: ADME; details: mouse, in vivo, 100 mg/kg, 336 h
# [3] = Plasma protein binding of tritium labeled compound in rat plasma was determined; type: ADME, cell-free; details: read-out: Protein binding
# [4] = Oral bioavailability in SD rats after 5 mg/kg oral dose; type: ADME, organism-based; details: Sprague-Dawley, rat, in vivo
# [5] = Cholesterol levels in ob/ob mice after 14 days of oral dose at 30 mpk b.i.d.; type: ADME; details: mouse, in vivo, 30 mg/kg, 336 h
# [6] = Free fatty acid (FFA) levels in ob/ob mice after 14 days of oral dose at 30 mpk b.i.d.; type: ADME; details: mouse, in vivo, 30 mg/kg, 336 h
# [7] = Insulin levels in ob/ob mice after 14 days of oral dose at 30 mpk b.i.d.; type: ADME; details: mouse, in vivo, 30 mg/kg, 336 h
# [8] = Free fatty acid (FFA) levels in ob/ob mice after 14 days of oral dose at 100 mpk b.i.d.; type: ADME; details: mouse, in vivo, 100 mg/kg, 336 h
# [9] = Glycogen levels in ob/ob mice after 14 days of oral dose at 30 mpk b.i.d.; type: ADME; details: mouse, in vivo, 30 mg/kg, 336 h
# [10] = Insulin levels in ob/ob mice after 14 days of oral dose at 100 mpk b.i.d.; type: ADME; details: mouse, in vivo, 100 mg/kg, 336 h
# [11] = HbA1c levels in ob/ob mice after 30 days of oral dose at 30 mpk b.i.d.; type: ADME; details: mouse, in vivo, 30 mg/kg, 720 h
# [12] = Liver TAT levels in ob/ob mice after 14 days of oral dose at 30 mpk b.i.d.; type: ADME, tissue-based; details: mouse, in vivo, 30 mg/kg, 336 h
# Mus musculus [13] = species: Mus musculus; assay: Initial weight of the ob/ob mice before oral treatment at 30 mpk b.i.d. for 14 days; type: functional
# [14] = Free fatty acid (FFA) levels in ob/ob mice after 30 days of oral dose at 30 mpk b.i.d.; type: ADME; details: mouse, in vivo, 30 mg/kg, 720 h
# Mus musculus [15] = species: Mus musculus; assay: Final weight of the ob/ob mice after 14 days of oral treatment at 30 mpk b.i.d.; type: functional
# [16] = Aspartate aminotransferase /alanine aminotransferase levels in ob/ob mice after 30 days of oral dose at 100 mpk b.i.d.; type: ADME; details: mouse, in vivo, 100 mg/kg, 720 h
# [17] = Compound level in liver in ob/ob mice after 13 days of […] mpk oral dose of compound; type: ADME, tissue-based; details: mouse, 30 mg/kg, read-out: Level
# [18] = Aspartate aminotransferase /alanine aminotransferase levels in ob/ob mice after 30 days of oral dose at 30 mpk b.i.d.; type: ADME; details: mouse, in vivo, 30 mg/kg, 720 h
# [19] = Glucose levels in ob/ob mice after 14 days of oral dose at 30 mpk b.i.d.; type: ADME; details: mouse, in vivo, 30 mg/kg, 336 h
# [20] = Area under the concentration-time curve in SD rats after 5 mg/kg oral dose; type: ADME, organism-based; parameters: dose 5 mg/kg, route oral; details: rat, in vivo
# [21] = Free fatty acid (FFA) levels in ob/ob mice after 13 days of oral dose at 10 mpk b.i.d.; type: ADME; details: mouse, in vivo, 10 mg/kg, 312 h
# [22] = Free levels in ob/ob mice after 13 days of oral dose at 100 mpk b.i.d.; type: ADME; details: mouse, in vivo, 100 mg/kg, 312 h
# [23] = Glucose levels in ob/ob mice after 13 days of oral dose at 10 mpk b.i.d.; type: ADME; details: mouse, in vivo, 10 mg/kg, 312 h
# [24] = Glucose levels in ob/ob mice after 13 days of oral dose at 100 mpk b.i.d.; type: ADME; details: mouse, in vivo, 100 mg/kg, 312 h
# Mus musculus [25] = species: Mus musculus; assay: Final weight of the ob/ob mice after 13 days of oral treatment at 100 mpk b.i.d.; type: functional
# [26] = Clearance of the compound in rat after 5 mg/kg iv dose was determined; details: in vivo
# [27] = Aspartate aminotransferase (AST) levels in ob/ob mice after 13 days of oral dose at 10 mpk b.i.d.; type: ADME; details: mouse, in vivo, 10 mg/kg, 312 h
# [28] = Alanine aminotransferase (ALT) levels in ob/ob mice after 13 days of oral dose at 10 mpk b.i.d.; type: ADME; details: mouse, in vivo, 10 mg/kg, 312 h
# [29] = Aspartate aminotransferase (AST) levels in ob/ob mice after 13 days of oral dose at 100 mpk b.i.d.; type: ADME; details: mouse, in vivo, 100 mg/kg, 312 h
# [30] = Insulin levels in ob/ob mice after 13 days of oral dose at 10 mpk b.i.d.; type: ADME; details: mouse, in vivo, 10 mg/kg, 312 h
# Mus musculus [31] = species: Mus musculus; assay: Initial weight of the ob/ob mice before oral treatment at 100 mpk b.i.d. for 13 days; type: functional
smiles,measurement,setting,value
Cc1c(NS(C)(=O)=O)cccc1N(Cc1ccc(Oc2ccc(F)c(OCC(=O)O)c2)cc1)Cc1ccc(F)cc1F,Level,[1],2660 µg/mL
same,Level,[2],44.2 mg/g
same,fraction unbound,[3],0.001
same,bioavailability,[4],40%
same,Level,[5],2250 µg/mL
same,Level,[6],0.99 mequiv/L
same,Level,[7],0.025 µg/mL
same,Level,[8],1.01 mequiv/L
same,Level,[9],54.6 mg/g
same,Level,[10],0.0328 µg/mL
same,Level,[11],8.9%
same,Level,[12],1.7 nmol ofpHB/min/mgof protein
same,Weight,Mus musculus [13],41.5 g
same,Level,[14],0.99 mequiv/L
same,Weight,Mus musculus [15],49.2 g
same,Level,[16],303 units/mL
same,concentration at 312 h,[17],20000 ng/g
same,Level,[18],395 units/mL
same,Level,[19],3140 µg/mL
same,AUC,[20],3850 ng·h/mL
Cc1c(NS(C)(=O)=O)cccc1N(Cc1ccccc1)Cc1ccc(Oc2ccc(OCC(=O)O)cc2)cc1,Level,[21],1.3 mequiv/L
same,Level,[22],1 mequiv/L
same,Level,[23],3330 µg/mL
same,Level,[24],2900 µg/mL
same,Weight,Mus musculus [25],46.6 g
same,Clearance,[26],233 mL/min/kg
same,Level,[27],420 units/mL
same,Level,[28],786 units/mL and 282 units/mL
same,Level,[29],330 units/mL
same,Level,[30],0.02 µg/mL
same,Weight,Mus musculus [31],46 g

# Source: ChEMBL document CHEMBL1141148, “Antidiabetic activity of passive nonsteroidal glucocorticoid receptor modulators” (J Med Chem, 2005)
